Reference: patent publication US7488712B2, “Histone deacetylase inhibitors and methods for producing the same” (Kyushu Institute of Technology, priority 2002, dated 2009)
*1 amine or outer side, *2 acyl side, *3 side chain or, on linkers, in order; H or OH if unused. Where a SMILES comes first, the peptide text is derived from it. Bridges are numbered along the chain shown (N, C = ends). Roman numbers before positions name the chains, in order. [ ]: non-standard residue; d: D form. The star is where a group is joined. hNle(7-SH) = O=C([C@H](CCCCCS[*:3])N[*:1])[*:2]; X1 = CN(C)C(=O)c1cc(S*)ccc1[N+](=O)[O-]; Gly((CH2)5SH) = N[C@@H](CCCCCS)C(=O)O; Pip = O=C(O)[C@@H]1CCCCN1; dPip = O=C(O)[C@H]1CCCCN1

How the values were obtained:
[1] = target: T1, mouse HDAC6 (Mus musculus, UniProt Q9Z2V5); test: In vitro HDAC inhibition activity, [3H]-acetylated histone substrate, HDAC6; type: biochemical
T1 construct: HA; made in house; host or cells: 293T cells (transient transfection, anti-HA immunoprecipitation, HA peptide elution)
T1 sequence (Q9Z2V5 1-1149): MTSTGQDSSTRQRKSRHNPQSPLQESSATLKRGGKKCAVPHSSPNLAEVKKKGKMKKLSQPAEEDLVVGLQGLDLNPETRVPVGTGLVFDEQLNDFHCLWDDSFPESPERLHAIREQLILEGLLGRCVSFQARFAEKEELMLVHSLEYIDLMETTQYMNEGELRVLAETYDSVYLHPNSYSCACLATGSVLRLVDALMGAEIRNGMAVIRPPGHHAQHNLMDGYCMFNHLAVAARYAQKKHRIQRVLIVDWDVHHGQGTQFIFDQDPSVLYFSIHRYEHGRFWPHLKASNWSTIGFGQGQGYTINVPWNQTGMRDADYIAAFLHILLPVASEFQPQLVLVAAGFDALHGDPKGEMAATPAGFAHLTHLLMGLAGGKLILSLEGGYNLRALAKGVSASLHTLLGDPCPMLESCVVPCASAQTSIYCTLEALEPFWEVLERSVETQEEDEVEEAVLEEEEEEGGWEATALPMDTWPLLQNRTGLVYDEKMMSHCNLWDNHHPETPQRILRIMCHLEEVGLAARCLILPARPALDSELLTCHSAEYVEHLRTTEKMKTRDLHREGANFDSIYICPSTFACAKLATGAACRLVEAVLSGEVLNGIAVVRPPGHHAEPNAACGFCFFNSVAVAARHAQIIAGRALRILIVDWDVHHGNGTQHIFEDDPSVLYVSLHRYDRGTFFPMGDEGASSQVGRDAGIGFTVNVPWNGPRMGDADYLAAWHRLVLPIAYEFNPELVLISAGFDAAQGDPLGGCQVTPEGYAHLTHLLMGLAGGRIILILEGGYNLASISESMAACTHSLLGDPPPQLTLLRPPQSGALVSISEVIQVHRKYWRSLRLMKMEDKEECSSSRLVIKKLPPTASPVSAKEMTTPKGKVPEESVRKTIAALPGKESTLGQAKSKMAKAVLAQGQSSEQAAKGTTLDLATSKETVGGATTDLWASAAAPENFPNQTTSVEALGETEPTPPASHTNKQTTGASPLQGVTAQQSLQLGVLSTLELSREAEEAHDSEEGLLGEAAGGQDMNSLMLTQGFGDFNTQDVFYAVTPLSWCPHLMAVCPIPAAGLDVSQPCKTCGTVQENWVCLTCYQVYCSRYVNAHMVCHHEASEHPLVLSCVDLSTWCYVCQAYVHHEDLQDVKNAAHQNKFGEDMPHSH
Protocol: (§1) To measure HDAC inhibition activity, an HDAC solution was prepared as described below. 1×10^7 of 293T cells were plated on to a 100-mm dish and, after 24 hours, transfected with vectors (1 μg) expressing human HDAC1 and HDAC4 or mouse HDAC6, using LipofectAmine 2000 reagent (Life Technologies, Inc. Gaithersburg, Md.). […] The vectors were introduced for five hours in OPTI-MEM. The medium was then replaced with Dulbecco's modified Eagle's medium (DMEM), and incubated for 19 hours. The cells were washed with PBS, suspended in lysis buffer (50 mM Tris-HCl (pH7.5), 120 mM NaCl, 5 mM EDTA, and 0.5% Nonidet P-40), and sonicated. The supernatant was collected by centrifugation and nonspecific protein was removed using Protein A/G plus agarose beads (Santa Cruz Biotechnologies, Inc.). Anti-FLAG M2 antibodies (Sigma-Aldrich, Inc.) were added to the supernatant of cells expressing HDAC1 or HDAC4. Anti-HA antibodies (clone 3F10, Roche Molecular Biochemicals) were added to the supernatant of cells expressing HDAC6. Reaction in the respective mixtures was carried out at 4° C. for one hour. The resulting reaction mixtures were independently mixed with agarose beads and further reacted at 4° C. for one hour. The agarose beads were washed three times with lysis buffer and then washed once with HD buffer (20 mM Tris-HCl (pH8.0), 150 mM NaCl, 10% glycerol, and a complete protease inhibitor cocktail (Boehringer Mannheim, Germany)). […] The HDAC reaction solution was used for determining HDAC inhibition activity as shown below.
(§2) In vitro HDAC inhibition activity was evaluated as follows: A test compound was dissolved in DMSO and adjusted to 10 mM. This was used as an inhibitor stock solution. […] These reactions were stopped by adding 10 μl HCl. The [^3H] acetic acid excised by the enzyme reaction was extracted with ethyl acetate and subjected to radioactive dose measurement. As a negative control, the same procedure was carried out in which no inhibitor was added to the reaction system. The inhibition activity was expressed as a 50% inhibition concentration (“IC50 (nM)”) of the HDAC activity in the negative control (Tables 1 to 4).

[2] = target: T2, human HDAC1 (Homo sapiens, UniProt Q13547); test: In vitro HDAC inhibition activity, [3H]-acetylated histone substrate, HDAC1; type: biochemical
T2 construct: FLAG; made in house; host or cells: 293T cells (transient transfection, anti-FLAG immunoprecipitation, FLAG peptide elution)
Protocol: as §1, §2

[3] = system: human wild-type p21 promoter; test: p21 promoter-inducing activity (luciferase) in MFLL-9 cells; type: cell-based
Protocol: The HDAC inhibition activity in vivo was measured using p21 promoter-inducing activity as an index, as shown below. The MFLL-9 cells employed for the experiments stably maintained fusion genes of human wild-type p21 promoter and luciferase (Dr. B. Vogelstaein). Using phenol red-free DMEM medium comprising 10% FBS, cultivation was carried out in a steam-saturated incubator at 37° C. with 5% carbon dioxide. The MFLL-9 cells were plated at a density of 85,000 cells/well on a 96-well microtiter plate, each in 99 μl of the above-mentioned medium. These were then cultivated for six hours. One μl of test compound solution was added to each well, which was then cultured for another 18 hours.
The intensity of luminescence caused by the product of the enzyme reaction for intracellular luciferase expression was measured using Luc Lite (Packard BioScience Company). A group in which test compounds were not added was used as a negative control group. The values measured for this group were used as a standard. The activities for each concentration of added test compound were expressed relative to the above-mentioned standard value, 1.

[4] = target: T3, human HDAC4 (Homo sapiens, UniProt P56524); test: In vitro HDAC inhibition activity, [3H]-acetylated histone substrate, HDAC4; type: biochemical
T3 construct: FLAG; made in house; host or cells: 293T cells (transient transfection, anti-FLAG immunoprecipitation, FLAG peptide elution)
Protocol: as §1, §2

[5] = Table 1, X = H (coexisting with DTT)
[6] = Table 1, X = H (coexisting with DTT), 50% of maximum active value for TSA
[7] = Table 3, hybrid with DTT (/DTT)

T2 sequence (Q13547 whole entry): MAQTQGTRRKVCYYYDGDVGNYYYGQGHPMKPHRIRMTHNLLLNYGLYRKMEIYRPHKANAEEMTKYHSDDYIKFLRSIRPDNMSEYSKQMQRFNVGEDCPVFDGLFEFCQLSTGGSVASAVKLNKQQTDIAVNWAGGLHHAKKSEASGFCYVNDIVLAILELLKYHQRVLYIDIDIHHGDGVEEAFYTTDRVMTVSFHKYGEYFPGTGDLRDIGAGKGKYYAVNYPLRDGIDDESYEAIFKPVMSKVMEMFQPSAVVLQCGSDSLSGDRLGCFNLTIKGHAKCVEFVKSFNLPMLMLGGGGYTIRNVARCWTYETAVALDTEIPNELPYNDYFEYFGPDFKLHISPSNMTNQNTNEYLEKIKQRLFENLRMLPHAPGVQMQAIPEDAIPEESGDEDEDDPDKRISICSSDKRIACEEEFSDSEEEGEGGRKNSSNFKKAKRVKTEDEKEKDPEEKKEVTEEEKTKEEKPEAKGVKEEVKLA
T3 sequence (O15379 whole entry partner): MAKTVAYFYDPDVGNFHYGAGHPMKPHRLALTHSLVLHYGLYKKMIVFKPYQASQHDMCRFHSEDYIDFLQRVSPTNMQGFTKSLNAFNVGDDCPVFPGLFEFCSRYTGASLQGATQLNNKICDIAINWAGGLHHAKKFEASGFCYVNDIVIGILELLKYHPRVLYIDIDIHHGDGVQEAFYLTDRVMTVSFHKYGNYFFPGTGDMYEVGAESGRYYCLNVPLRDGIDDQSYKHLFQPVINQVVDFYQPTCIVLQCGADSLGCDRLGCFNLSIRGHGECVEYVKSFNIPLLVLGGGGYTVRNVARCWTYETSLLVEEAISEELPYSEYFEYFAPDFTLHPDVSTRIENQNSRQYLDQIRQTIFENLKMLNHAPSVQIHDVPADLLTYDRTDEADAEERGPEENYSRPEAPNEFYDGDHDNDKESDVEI
T3 sequence (P56524 whole entry): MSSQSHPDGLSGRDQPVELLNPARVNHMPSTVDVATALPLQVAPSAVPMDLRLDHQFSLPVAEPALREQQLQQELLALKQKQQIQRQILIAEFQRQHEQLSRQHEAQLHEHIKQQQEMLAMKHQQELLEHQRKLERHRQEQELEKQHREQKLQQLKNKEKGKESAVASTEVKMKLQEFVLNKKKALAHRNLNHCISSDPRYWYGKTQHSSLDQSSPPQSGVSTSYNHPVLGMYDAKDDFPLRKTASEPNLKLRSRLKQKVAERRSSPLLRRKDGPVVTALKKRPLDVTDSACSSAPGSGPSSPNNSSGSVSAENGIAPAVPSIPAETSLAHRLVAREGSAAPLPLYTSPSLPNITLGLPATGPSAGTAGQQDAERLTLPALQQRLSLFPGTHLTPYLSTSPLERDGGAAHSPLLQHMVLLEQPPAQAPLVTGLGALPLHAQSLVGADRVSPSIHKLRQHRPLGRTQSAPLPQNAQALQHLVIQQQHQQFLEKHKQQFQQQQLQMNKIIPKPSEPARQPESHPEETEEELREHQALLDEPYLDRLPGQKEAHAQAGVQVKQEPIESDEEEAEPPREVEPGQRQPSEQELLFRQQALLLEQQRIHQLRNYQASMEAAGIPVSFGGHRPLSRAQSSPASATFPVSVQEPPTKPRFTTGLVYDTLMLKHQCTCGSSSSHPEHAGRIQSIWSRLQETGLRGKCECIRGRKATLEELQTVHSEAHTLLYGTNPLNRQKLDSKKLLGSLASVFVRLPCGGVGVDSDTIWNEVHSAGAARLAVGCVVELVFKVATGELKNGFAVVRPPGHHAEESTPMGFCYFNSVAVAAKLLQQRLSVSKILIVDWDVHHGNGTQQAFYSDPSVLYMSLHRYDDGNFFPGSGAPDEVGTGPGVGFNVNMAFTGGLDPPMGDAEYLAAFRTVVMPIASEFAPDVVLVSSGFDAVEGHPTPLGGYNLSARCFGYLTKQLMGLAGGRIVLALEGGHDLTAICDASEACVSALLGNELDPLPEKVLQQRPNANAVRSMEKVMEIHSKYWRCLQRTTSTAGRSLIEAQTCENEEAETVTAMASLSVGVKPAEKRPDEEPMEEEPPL

IC50 [1, 5] [nM]	IC50 [2, 5] [nM]	EC50 [3, 6] [µM]	IC50 [4, 5] [nM]	IC50 ([1]; Table 2, homodimer) [nM]	IC50 ([2]; Table 2, homodimer) [nM]	EC50 ([3]; Table 2, homodimer) [µM]	IC50 ([4]; Table 2, homodimer) [nM]	Compound	other results
2470	38.1	31.4	99.2	–	–	–	–	CC[C@H](C)[C@@H]1NC(=O)[C@@H](Cc2ccc(OC)cc2)NC(=O)[C@H](CCCCCCCS)NC(=O)[C@H]2CCCN2C1=O [SCOP 154]	–
–	–	–	–	–	–	–	–	CC[C@H](C)[C@@H]1NC(=O)[C@@H](Cc2ccc(OC)cc2)NC(=O)[C@H](CCCCCSSc2ccc([N+](=O)[O-])c(C(=O)N(C)C)c2)NC(=O)[C@H]2CCCN2C1=O [SCOP 403, cyclo(-L-Am7(SEll)-D-Tyr(Me)-L-Ile-D-Pro-)] (cyclo([hNle(7-SH)](X1)[dY](Me)I[dP]))	IC50 [1, 7]: 4730 nM; IC50 ([1]; Table 3, hybrid, without DTT): 6080 nM; IC50 [2, 7]: 1.15 nM; IC50 ([2]; Table 3, hybrid, without DTT): 21.5 nM; EC50 [3, 7]: 0.748 µM; EC50 ([3]; Table 3, hybrid, without DTT): 1.8 µM; IC50 [4, 7]: 1.53 nM; IC50 ([4]; Table 3, hybrid, without DTT): 18.9 nM
–	–	–	–	> 500000	7200	> 100	> 500000	CC[C@H](C)[C@@H]1NC(=O)[C@@H](Cc2ccc(OC)cc2)NC(=O)[C@H](CCCCSSCCCC[C@@H]2NC(=O)[C@H]3CCCN3C(=O)[C@H]([C@@H](C)CC)NC(=O)[C@@H](Cc3ccc(OC)cc3)NC2=O)NC(=O)[C@H]2CCCN2C1=O [SCOP 302, cyclo(-L-Am6(-)-D-Tyr(Me)-L-Ile-D-Pro-]	–
28500	932	> 100	7340	–	–	–	–	CC[C@H](C)[C@@H]1NC(=O)[C@@H](Cc2ccc(OC)cc2)NC(=O)[C@H](CCCCS)NC(=O)[C@H]2CCCN2C1=O [SCOP 151]	–
–	–	–	–	–	–	–	–	CC[C@H](C)[C@@H]1NC(=O)[C@@H](Cc2ccc(OC)cc2)NC(=O)[C@H](CCCCCSSCCO)NC(=O)[C@H]2CCCN2C1=O [SCOP 404, cyclo(-L-Am7(SMEt)-D-Tyr(Me)-L-Ile-D-Pro-)]	IC50 [1, 7]: 15400 nM; IC50 ([1]; Table 3, hybrid, without DTT): 201000 nM; IC50 [2, 7]: 2.44 nM; IC50 ([2]; Table 3, hybrid, without DTT): 217 nM; EC50 [3, 7]: 0.754 µM; EC50 ([3]; Table 3, hybrid, without DTT): 1.36 µM; IC50 [4, 7]: 13 nM; IC50 ([4]; Table 3, hybrid, without DTT): 355 nM
–	–	–	–	745000	983	235	505	CC[C@H](C)[C@@H]1NC(=O)[C@@H](Cc2ccc(OC)cc2)NC(=O)[C@H](CCCCCCCSSCCCCCCC[C@@H]2NC(=O)[C@H]3CCCN3C(=O)[C@H]([C@@H](C)CC)NC(=O)[C@@H](Cc3ccc(OC)cc3)NC2=O)NC(=O)[C@H]2CCCN2C1=O [SCOP 308, cyclo(-L-Am9(-)-D-Tyr(Me)-L-Ile-D-Pro-]	–
44300	2.37	0.596	5.22	–	–	–	–	CC[C@H](C)[C@@H]1NC(=O)[C@@H](Cc2ccc(OC)cc2)NC(=O)[C@H](CCCCCS)NC(=O)[C@@H]2CCCCN2C1=O [SCOP 149] (cyclo([Gly((CH2)5SH)][dY](Me)I[Pip]))	–
8050	9.13	9.85	91	–	–	–	–	CC[C@H](C)[C@@H]1NC(=O)[C@@H](Cc2ccc(OC)cc2)NC(=O)[C@H](CCCCCCS)NC(=O)[C@H]2CCCN2C1=O [SCOP 153]	–
–	–	–	–	> 500000	763	7.73	222	CC[C@H](C)[C@@H]1NC(=O)[C@@H](Cc2ccc(OC)cc2)NC(=O)[C@H](CCCCCSSCCCCC[C@@H]2NC(=O)[C@@H]3CCCN3C(=O)[C@H]([C@@H](C)CC)NC(=O)[C@@H](Cc3ccc(OC)cc3)NC2=O)NC(=O)[C@@H]2CCCN2C1=O [SCOP 296, cyclo(-L-Am7(-)-D-Tyr(Me)-L-Ile-L-Pro-)] (I: cyclo([hNle(7-SH)][dY](Me)IP) / II: cyclo([hNle(7-SH)][dY](Me)IP); disulfide I:1-II:1)	–
> 500000	81.4	6.72	17	–	–	–	–	CC[C@H](C)[C@@H]1NC(=O)[C@@H](Cc2ccc(OC)cc2)NC(=O)[C@H](CCCCCS)NC(=O)[C@@H]2CCCN2C1=O [SCOP 148] (cyclo([Gly((CH2)5SH)][dY](Me)IP))	–
–	–	–	–	255000	61.1	7.37	36.2	CC[C@H](C)[C@@H]1NC(=O)[C@@H](Cc2ccc(OC)cc2)NC(=O)[C@H](CCCCCSSCCCCC[C@@H]2NC(=O)[C@H]3CCCCN3C(=O)[C@H]([C@@H](C)CC)NC(=O)[C@@H](Cc3ccc(OC)cc3)NC2=O)NC(=O)[C@H]2CCCCN2C1=O [SCOP 300, cyclo(-L-Am7(-)-D-Tyr(Me)-L-Ile-D-Pip-] (I: cyclo([hNle(7-SH)][dY](Me)I[dPip]) / II: cyclo([hNle(7-SH)][dY](Me)I[dPip]); disulfide I:1-II:1)	–
5560	2.1	0.504	4.26	–	–	–	–	CC[C@H](C)[C@@H]1NC(=O)[C@@H](Cc2ccc(OC)cc2)NC(=O)[C@H](CCCCCS)NC(=O)[C@H]2CCCCN2C1=O [SCOP 150] (cyclo([Gly((CH2)5SH)][dY](Me)I[dPip]))	–
–	–	–	–	–	–	–	–	cyclo(-L-Am7(S2Py)-D-Tyr(Me)-L-Ile-D-Pro-) [SCOP 401]	EC50 [3, 7]: 0.815 µM; EC50 ([3]; Table 3, hybrid, without DTT): 1.36 µM
–	–	–	–	418000	114	5.8	33.7	CC[C@H](C)[C@@H]1NC(=O)[C@@H](Cc2ccc(OC)cc2)NC(=O)[C@H](CCCCCSSCCCCC[C@@H]2NC(=O)[C@@H]3CCCCN3C(=O)[C@H]([C@@H](C)CC)NC(=O)[C@@H](Cc3ccc(OC)cc3)NC2=O)NC(=O)[C@@H]2CCCCN2C1=O [SCOP 298, cyclo(-L-Am7(-)-D-Tyr(Me)-L-Ile-L-Pip-] (I: cyclo([hNle(7-SH)][dY](Me)I[Pip]) / II: cyclo([hNle(7-SH)][dY](Me)I[Pip]); disulfide I:1-II:1)	–
–	–	–	–	1.32e+06	153	–	319	CC[C@H](C)[C@@H]1NC(=O)[C@@H](Cc2ccc(OC)cc2)NC(=O)[C@H](CCCCCCSSCCCCCC[C@@H]2NC(=O)[C@H]3CCCN3C(=O)[C@H]([C@@H](C)CC)NC(=O)[C@@H](Cc3ccc(OC)cc3)NC2=O)NC(=O)[C@H]2CCCN2C1=O [SCOP 306, cyclo(-L-Am8(-)-D-Tyr(Me)-L-Ile-D-Pro-]	–
